Assay [1] concerns phospho-akt (Thr308) in PC-3 cells. In words: Inhibition of phospho-akt (Thr308) in PC-3 cells, MSD phospho-akt 308 ELISA kit. Conditions: 2 hours, no serum, read-out: EC50. The assay is classed as cell-based. A digest of the protocol: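 Electrochemiluminescent MSD ELISA of Thr308-phosphorylated Akt after a 2 h serum-free compound exposure of PC-3 cells (15,000/well, plated overnight). Controls: DMSO (high), 5 μM wortmannin (low). Lysate binding overnight at 4 °C; detection antibody 1 h at room temperature.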
On the technique in general: In an ELISA, binding on a coated surface is turned into a signal by an enzyme label.

For another assay, the target named is PDK1 (Homo sapiens (Human), UniProt O15530). The assay can be described thus: PDK1 kinase assay (coupled PDK1/AKT/FAM-crosstide assay, IMAP fluorescence polarization). The assay is classed as biochemical. Put shortly: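 Inhibition is derived by 4-parameter fitting of ΔmP from an IMAP fluorescence polarization read of FAM-crosstide (100 nM) phosphorylation. The cascade ran 30 min at 25 °C with 40 μM ATP, using insect-cell GST-PDK1 51-359 (0.75 nM) driving 10 nM unphosphorylated AKT2 140-467-PIFtide fusion.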
For orientation: Polarisation of emitted light reports the rotation of a fluorescent probe.

Where [2] appears, read: Homo sapiens, inhibition of P308 Akt in PC-3 cells using MSD.
Where [3] appears, read: Homo sapiens, inhibition of P308 Akt in PC-3 cells, MSD.
The mark [4] stands for this setting: inhibition of phospo-PDK1 in vitro.
[5] abbreviates: inhibition of P308 Akt in PC-3 cells using MSD.

The structures appear in SMILES notation. Read-outs that look alike come from different tables or passages of the source. A value given as a limit tells only on which side of the number the result lay.

The EC50 is the midpoint of the concentration-response curve. Usually IC50 stands for the point on the concentration scale where inhibition reaches its midpoint. A higher IC50 goes with a need for much substance.

Sequence of PDK1 (O15530 51-359): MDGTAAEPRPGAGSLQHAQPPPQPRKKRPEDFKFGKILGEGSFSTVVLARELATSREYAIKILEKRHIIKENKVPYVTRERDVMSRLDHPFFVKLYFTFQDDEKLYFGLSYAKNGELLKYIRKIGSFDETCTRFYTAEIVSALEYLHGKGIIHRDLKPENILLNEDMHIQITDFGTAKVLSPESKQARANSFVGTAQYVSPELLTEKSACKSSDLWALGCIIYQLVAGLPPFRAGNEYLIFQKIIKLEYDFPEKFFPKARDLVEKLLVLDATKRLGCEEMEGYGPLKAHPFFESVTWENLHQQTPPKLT

For the molecule `Nc1n[nH]c2ncc(-c3ccc(CNc4ncc(C(F)(F)F)cc4C(=O)Nc4c(F)cc(F)cc4F)cc3)cc12` [Example 278, 2-(4-(3-amino-1H-pyrazolo [3,4-b]pyridin-5-yl)benzylamino)-5-(trifluoromethyl)-N-(2,4,6-trifluorophenyl)nicotinamide], the EC50 in assay [1] (setting [2]) was less than 1000 nM. Further, the IC50 on PDK1 (inhibition of PDK1 in vitro) is less than 100 nM.
As to `Nc1ncnc2ccc(-c3ccc(CNc4nc(Cl)cc5ncn(Cc6ccc(F)c(F)c6)c(=O)c45)s3)cc12` [Ex. 7.17, 5-({[5-(4-aminoquinazolin-6-yl)thiophen-2-yl]methyl}amino)-7-chloro-N-3-(3,4-difluorobenzyl)pyrido [4,3-d]pyrimidin-4(3H)-one], the EC50 in assay [1] (setting [3]) was in the range of 1000 to 10000 nM. The same molecule came in with an IC50 at PDK1 (setting [4]) of less than 100 nM.
In the case of `C[C@H](NC(=O)c1cc(C#N)cnc1NCc1ccc(-c2ccc3n[nH]c(=O)n3c2)cc1)c1ccc(F)cc1` [Example 145, (S)-5-cyano-N-(1-(4-fluorophenyl)ethyl)-2-(4-(3-oxo-2,3-dihydro-[1,2,4]triazolo[4,3-a]pyridin-6-yl)benzyl-amino)nicotinamide], the EC50 in assay [1] (setting [2]) is more than 10000 nM. For the same molecule, the IC50 on PDK1 (inhibition of PDK1 in vitro) was more than 5000 nM.
On the same counts, the results for `Nc1ncnc2ccc(-c3ccc(CNc4ncc(S(=O)(=O)NCCO)cc4C(=O)NCc4ccc(F)c(F)c4)s3)cc12` [Example 343, 2-((5-(4-aminoquinazolin-6-yl)thiophen-2-yl)methyl)amino)-(N-(3,4-difluorobenzyl)-5-(N-(2-hydroxyethyl)sulfamoyl)nicotinamide] are less than 1000 nM and less than 100 nM.
On to `C[C@H](NC(=O)c1cc(C#N)cnc1NCc1ccc(-c2ccc3ncnc(N)c3c2)s1)c1ccc(F)c(F)c1` [Example 8.8.2], for which the EC50 in assay [1] (setting [3]) was less than 1000 nM. Further, the IC50 on PDK1 (setting [4]) is less than 100 nM.
On the same counts, the results for `Nc1ncnc2ccc(-c3ccc(CNc4ncc(S(=O)(=O)NCc5cccnc5)cc4C(=O)NCc4ccc(F)c(F)c4)s3)cc12` [Example 8.7.13, 2-(((5-(4-aminoquinazolin-6-yl)thiophen-2-yl)methyl)amino)-N-(3,4-difluorobenzyl)-5-(N-(pyridin-3-ylmethyl)sulfamoyl)nicotinamide] are 1000 to 10000 nM and 100 to 1000 nM.
In the same order, the values of `Nc1ncnc2ccc(-c3ccc(CNc4nc5ccccc5cc4C(=O)NCc4ccc(F)c(F)c4)s3)cc12` [Ex. 8.14.1, 2-({[5-(4-aminoquinazolin-6-yl)thiophen-2-yl]methyl}amino)-N-(3,4-difluorobenzyl) quinoline-3-carboxamide] are less than 1000 nM and less than 100 nM.
On to `O=C1Nc2cc(OCCNc3ncccc3C(=O)NCc3ccc(F)c(F)c3)ccc2/C1=C/c1cnc[nH]1` [Example 22, (Z)-2-(2-(3-((1H-imidazol-5-yl)methylene)-2-oxoindolin-6-yloxy)ethylamino)-N-(3,4-difluorobenzyl)nicotinamide], for which, in assay [1] (setting [3]), the EC50 is less than 1000 nM. The molecule also yielded an IC50 against PDK1 (setting [4]) of less than 100 nM.
Turning to `O=C(Nc1ccc(F)cc1)c1cc(C(F)(F)F)cnc1NCc1ccc(-c2cnc3[nH]ncc3c2)cc1` [Example 156, 2-(4-(1H-pyrazolo[3,4-b]pyridin-5-yl)benzylamino)-N-(4-fluorophenyl)-5-(trifluoromethyl)nicotinamide], in assay [1] (setting [2]), the EC50 is less than 1000 nM. The molecule also had an IC50 against PDK1 (inhibition of PDK1 in vitro) of less than 100 nM.
With `C[C@H](NC(=O)c1cc(C#N)cnc1NCc1ccc(-c2ccc(NCCN3CCOCC3)nc2)cc1)c1ccc(F)cc1` [Example 223, 5-Cyano-N-[(S)-1-(4-fluoro-phenyl)-ethyl]-2-{4-[6-(2-morpholin-4-yl-ethylamino)-pyridin-3-yl]-benzylamino}-nicotinamide], in assay [1] (setting [2]), the EC50 was more than 10000 nM. Further, the IC50 against PDK1 (inhibition of PDK1 in vitro) was more than 5000 nM.
Regarding `C[C@H](NC(=O)c1cc(C#N)cnc1NCc1ccc(-c2cnc(N)c(C(N)=O)n2)cc1)c1ccc(F)cc1` [Example 217, (S)-3-amino-6-(4-((5-cyano-3-(1-(4-fluorophenyl)ethylcarbamoyl)pyridin-2-ylamino)methyl)phenyl) pyrazine-2-carboxamide], in assay [1] (setting [2]), the concentration giving a half-maximal response (EC50) is less than 1000 nM. This molecule also displayed an IC50 against PDK1 (inhibition of PDK1 in vitro) of less than 100 nM.
Consider `O=C(NCc1ccc(F)c(F)c1)c1cccnc1NCc1ccccc1-c1c[nH]c2ncccc12` [Example 6.4, N-(3,4-difluorobenzyl)-2-{[2-(1H-pyrrolo[2,3-b]pyridin-3-yl)benzyl]amino}-pyridine-3-carboxamide], for which the EC50 in assay [1] (setting [3]) was more than 10000 nM. This molecule returned an IC50 on PDK1 (setting [4]) of more than 5000 nM.
On to `Nc1n[nH]c2ncc(-c3ccc(CNc4ncc(C(F)(F)F)nc4C(=O)Nc4ccc(F)cc4)cc3)cc12` [Example 39, 3-(4-(3-amino-1H-pyrazolo[3,4-b]pyridin-5-yl)benzylamino)-N-(4-fluorophenyl)-6-(trifluoromethyl)pyrazine-2-carboxamide], for which the EC50 in assay [1] (setting [3]) is less than 1000 nM. The molecule also came in with a half-inhibitory concentration (IC50) on PDK1 (setting [4]) of less than 100 nM.
Regarding `O=C(NCc1ccc(F)c(F)c1)c1cc(C(F)(F)F)cnc1NCc1ccc(-c2cnc3[nH]ncc3c2)cc1` [Example 2.37], the EC50 in assay [1] (setting [3]) was less than 1000 nM. In addition, the IC50 against PDK1 (setting [4]) is less than 100 nM.
For the molecule `CC(C)NS(=O)(=O)c1cnc(NCc2ccc(-c3ccc4ncnc(N)c4c3)s2)c(C(=O)NCc2ccc(F)c(F)c2)c1` [Example 8.7.9, 2-({[5-(4-aminoquinazolin-6-yl)thiophen-2-yl]methyl}amino)-N-(3,4-difluorobenzyl)-5-(propan-2-ylsulfamoyl) pyridine-3-carboxamide], the 50% effective concentration (EC50) in assay [1] (Homo sapiens, PC-3, 2 h, inhibition of P308 Akt in PC-3 cells, MSD) was in the range of 1000 to 10000 nM. On PDK1 (setting [4]), the IC50 fell in the range of 100 to 1000 nM.
For the molecule `C[C@H](NC(=O)c1cc(C#N)cnc1NCc1ccc(-c2cnc(N)cn2)cc1F)c1ccc(F)cc1` [Example 130, (S)-2-(4-(5-aminopyrazin-2-yl)-2-fluorobenzylamino)-5-cyano-N-(1-(4-fluorophenyl)ethyl) nicotinamide], in assay [1] (setting [2]), the EC50 fell in the range of 1000 to 10000 nM. Besides, the IC50 against PDK1 (inhibition of PDK1 in vitro) was less than 100 nM.
In the same order, the values of `C[C@H](NC(=O)c1cccnc1NCc1ncc(-c2ccc3ncc4ncn(C)c4c3c2)s1)c1ccc(F)c(F)c1` [Example 385, N-[(S)-1-(3,4-Difluoro-phenyl)-ethyl]-2-{[5-(1-methyl-1H-imidazo[4,5-c]quinolin-8-yl)-thiazol-2-ylmethyl]-amino}-nicotinamide] are less than 1000 nM and less than 100 nM.
For `C[C@H](NC(=O)c1nc(C#N)cnc1NCc1ccc(-c2cn(C)c3ncnc(N)c23)cc1)c1ccc(F)c(F)c1` [Example 27, (S)-3-(4-(4-amino-7-methyl-7H-pyrrolo[2,3-d]pyrimidin-5-yl)benzylamino)-6-cyano-N-(1-(3,4-difluorophenyl)ethyl)pyrazine-2-carboxamide], the EC50 in assay [1] (setting [3]) is less than 1000 nM. Also, at PDK1 (setting [4]), the IC50 is less than 100 nM.
For the molecule `C[C@H](NC(=O)c1nc(C#N)cnc1NCc1ccc(-c2cnc(N)c(CCC3CCNC3)n2)cc1)c1ccc(F)c(F)c1` (single isomer, unassigned) [Example 80], in assay [1] (setting [5]), the EC50 lay within 1000 to 10000 nM. The same molecule registered an IC50 against PDK1 (inhibition of PDK1 in vitro) of less than 100 nM.
As for `C[C@H](NC(=O)c1cc(C#N)cnc1NCc1ccc(-c2cnc3[nH]nc(N)c3c2)cc1)c1ccc(F)cc1` [Example 122, (S)-2-(4-(3-amino-1H-pyrazolo[3,4-b]pyridin-5-yl)benzylamino)-5-cyano-N-(1-(4-fluorophenyl)ethyl) nicotinamide], in assay [1] (setting [2]), the EC50 is less than 1000 nM. At PDK1 (inhibition of PDK1 in vitro), this molecule gave an IC50 of less than 100 nM.
With `C[C@H](NC(=O)c1cccnc1NCc1ccc(-c2ccc3ncnc(NCCN)c3c2)s1)c1ccc(F)cc1` [Example 2.15, (S)-2-(((5-(4-(2-aminoethylamino)quinazolin-6-yl)thiophen-2-yl)methyl)amino)-N-(1-(4-fluorophenyl)ethyl)nicotinamide], in assay [1] (setting [3]), the EC50 lay in the range of 1000 to 10000 nM. The molecule further showed an IC50 against PDK1 (setting [4]) of 100 to 1000 nM.
Take `Nc1ncnc2ccc(-c3ccc(CNc4ncc(-c5ccccc5)nc4C(=O)NCc4ccc(F)c(F)c4)s3)cc12` [Ex. 10.3, 3-({[5-(4-aminoquinazolin-6-yl)thiophen-2-yl]methyl}amino)-N-(3,4-difluorobenzyl)-6-phenylpyrazine-2-carboxamide]: the EC50 in assay [1] (setting [3]) is more than 10000 nM. In addition, at PDK1 (setting [4]), the half-inhibitory concentration (IC50) is more than 5000 nM.
With `NCCNc1n[nH]c2ncc(-c3ccc(CNc4ncc(C(F)(F)F)cc4C(=O)NCc4ccc(F)c(F)c4)cc3)cc12` [Example 153, 2-(4-(3-(2-amino-ethylamino)-1H-pyrazolo [3,4-b]pyridin-5-yl)benzylamino)-N-(3,4-difluorobenzyl)-5-(trifluoromethyl) nicotinamide], the EC50 in assay [1] (setting [2]) fell in the range of 1000 to 10000 nM. Besides, on PDK1 (inhibition of PDK1 in vitro), the IC50 is less than 100 nM.
Regarding `C[C@H](NC(=O)c1cc(C#N)cnc1NCc1ccc(-c2c[nH]c3ncnc(N)c23)cc1F)c1ccc(F)cc1` [Example 99, (S)-2-(4-(4-amino-7H-pyrrolo[2,3-d]pyrimidin-5-yl)-2-fluorobenzylamino)-5-cyano-N-(1-(4-fluorophenyl)ethyl) nicotinamide], the EC50 in assay [1] (setting [5]) was less than 1000 nM. Further, at PDK1 (inhibition of PDK1 in vitro), the IC50 was less than 100 nM.
For `C[C@H](NC(=O)c1cc(C#N)cnc1NCc1ccc(-c2cnc(N)c(N3CCNCC3)n2)cc1)c1ccc(F)cc1` [Example 191, 2-[4-(3′-Amino-3,4,5,6-tetrahydro-2H-[1,2′]bipyrazinyl-6′-yl)-benzylamino]-5-cyano-N-[(S)-1-(4-fluoro-phenyl)-ethyl]-nicotinamide], the EC50 in assay [1] (setting [2]) was less than 1000 nM. Also, at PDK1 (inhibition of PDK1 in vitro), the IC50 is less than 100 nM.
For the molecule `Cc1[nH]c(/C=C2\C(=O)Nc3cc(/C=C/CNc4ncccc4C(=O)NCc4ccc(F)c(F)c4)ccc32)c(C)c1C(=O)O` [Example 15.6], the EC50 in assay [1] (setting [3]) was less than 1000 nM. The same molecule came in with an IC50 against PDK1 (setting [4]) of more than 5000 nM.

The record behind these values is patent US10030016B2 (Sunesis Pharmaceuticals, Inc., priority 2009, dated 2018).
